# Measured values: patent US20170354148A1, “SAFENED HERBICIDAL COMPOSITIONS CONTAINING HALAUXIFEN AND METHODS OF USE THEREOF IN BRASSICA SPECIES” (Dow AgroSciences LLC, priority 2016, published 2017)
# Where two headings read alike, the source gives them in different places.
# Legend:
# [1] = test system: Aparima Gold swede (Brassica sp., BRSSS); test: Example 2 field trials (Canterbury, New Zealand), postemergence crop safety, visual phytotoxicity
# [2] = test system: Aparima Gold swede (Brassica sp., BRSSS); test: Example 1 pot trials, postemergence crop safety, visual phytotoxicity
# [3] = test system: rutabaga (Brassica napus var. napobrassica, BRSNA); settings: in vivo
# [4] = test system: winter oilseed rape (Brassica napus, BRSNW); settings: in vivo
# [5] = test system: Roundup Ready® canola (Brassica napus, RR-BRSNN); settings: in vivo
# [6] = test system: kale/Chinese kale (Brassica alboglabra, BRSAG); settings: in vivo
# [7] = test system: turnip or Polish canola (Brassica rapa, BRSRR); settings: in vivo
# [8] = test system: Nexera™ canola (Brassica napus, BRSNN-NEX); settings: in vivo
# [9] = test system: Nexera™ canola (Brassica napus, BRSNN-NEX); test: Example 5 greenhouse trials, postemergence visual injury; settings: BRSNN-NEX
# [10] = test system: turnip or Polish canola (Brassica rapa, BRSRR); test: as above; settings: BRSRR
# [11] = test system: Roundup Ready® canola (Brassica napus, RR-BRSNN); test: as above; settings: RR-BRSNN
# [12] = test system: Spring Argentine canola (Brassica napus, BRSNS); test: Example 3 field trials (Canada), postemergence crop safety, visual phytotoxicity; settings: alone or mixed
# [13] = test system: kale/Chinese kale (Brassica alboglabra, BRSAG); test: Example 5 greenhouse trials, postemergence visual injury; settings: BRSAG
# [14] = test system: winter oilseed rape (Brassica napus, BRSNW); test: as above; settings: BRSNW
# [15] = test system: rutabaga (Brassica napus var. napobrassica, BRSNA); test: as above; settings: BRSNA
structure (smiles),measurement,setting,value
"O=C(O)c1nc(Cl)ccc1Cl [Clopyralid-TIPA, (2RS,2′RS,2″RS)-tris(2-hydroxypropyl)ammonium 3,6-dichloropyridine-2-carboxylate]",Mean % Visual Growth Inhibition,"[1]; 22DAA1, 45 g ae/ha",2.0%
same,Mean % Visual Growth Inhibition,"[1]; 22DAA1, 90 g ae/ha",8.0%
same,Mean % Visual Injury,"[1]; 22DAA1, 90 g ae/ha",0.5%
same,Mean % Visual Growth Inhibition,"[1]; 22DAA1, 180 g ae/ha",7.0%
same,Mean % Visual Injury,"[1]; 22DAA1, 180 g ae/ha",0.5%
same,Mean % Visual Growth Inhibition,"[1]; 28DAA1, 45 g ae/ha",2.5%
same,Mean % Visual Injury,"[1]; 28DAA1, 45 g ae/ha",2.8%
same,Mean % Visual Growth Inhibition,"[1]; 28DAA1, 90 g ae/ha",5.0%
same,Mean % Visual Injury,"[1]; 28DAA1, 90 g ae/ha",4.5%
same,Mean % Visual Injury,"[1]; 28DAA1, 180 g ae/ha",3.0%
same,Mean % Visual Growth Inhibition,"[1]; 56DAA1, 45 g ae/ha",6.0%
same,Mean % Visual Growth Inhibition,"[1]; 56DAA1, 90 g ae/ha",2.0%
same,Mean % Visual Growth Inhibition,"[1]; 56DAA1, 180 g ae/ha",4.0%
same,Mean % Visual Injury,"[2]; 3DAA1, 90 g ae/ha",2.2%
same,Mean % Visual Injury,"[2]; 7DAA1, 90 g ae/ha",0.4%
same,Mean % Visual Injury,"[2]; 15DAA1, 90 g ae/ha",0.0%
same,Mean % Visual Injury,"[2]; 28DAA1, 90 g ae/ha",0.0%
"CCCCCC(C)OC(=O)COc1ccc(Cl)c2cccnc12 (centres unmarked) [Cloquintocet-mexyl, 1-methylhexyl (5-chloroquinolin-8-yloxy)acetate]",Percent (%) Visual Injury BRSNA Obs,[3],0%
same,Percent (%) Visual Injury BRSNW Obs,[4],0%
same,Percent (%) Visual Injury RR-BRSNN Obs,[5],0%
same,Percent (%) Visual Injury BRSAG Obs,[6],0%
same,Percent (%) Visual Injury BRSRR Obs,[7],0%
same,Percent (%) Visual Injury BRSNN-NEX Obs,[8],0%
"O=C(O)c1c(Cl)ccc2cc(Cl)cnc12 [Quinclorac, 3,7-dichloro-8-quinolinecarboxylic acid]",% Visual Injury Obs,"[9]; 50 g ai/ha alone, 20-22 d",0%
same,% Visual Injury Obs,"[9]; 100 g ai/ha alone, 20-22 d",0%
same,% Visual Injury Obs,"[9]; 200 g ai/ha alone, 20-22 d",0%
same,% Visual Injury Obs,[9]; quinclorac 50 g ai/ha,0%
same,Visual Injury Obs,[9]; quinclorac 50 g ai/ha,0%
same,% Visual Injury Obs,[9]; quinclorac 100 g ai/ha,0%
same,Visual Injury Obs,[9]; quinclorac 100 g ai/ha,0%
same,% Visual Injury Obs,[9]; quinclorac 200 g ai/ha,0%
same,Visual Injury Obs,[9]; quinclorac 200 g ai/ha,0%
same,% Visual Injury Obs,"[10]; 50 g ai/ha alone, 20-22 d",0%
same,% Visual Injury Obs,"[10]; 100 g ai/ha alone, 20-22 d",0%
same,% Visual Injury Obs,"[10]; 200 g ai/ha alone, 20-22 d",0%
same,% Visual Injury Obs,[10]; quinclorac 50 g ai/ha,0%
same,Visual Injury Obs,[10]; quinclorac 50 g ai/ha,0%
same,% Visual Injury Obs,[10]; quinclorac 100 g ai/ha,0%
same,Visual Injury Obs,[10]; quinclorac 100 g ai/ha,0%
same,% Visual Injury Obs,[10]; quinclorac 200 g ai/ha,0%
same,Visual Injury Obs,[10]; quinclorac 200 g ai/ha,0%
same,% Visual Injury Obs,"[11]; 50 g ai/ha alone, 20-22 d",0%
same,% Visual Injury Obs,"[11]; 100 g ai/ha alone, 20-22 d",0%
same,% Visual Injury Obs,"[11]; 200 g ai/ha alone, 20-22 d",0%
same,% Visual Injury Obs,[11]; quinclorac 50 g ai/ha,0%
same,Visual Injury Obs,[11]; quinclorac 50 g ai/ha,0%
same,% Visual Injury Obs,[11]; quinclorac 100 g ai/ha,0%
same,Visual Injury Obs,[11]; quinclorac 100 g ai/ha,0%
same,% Visual Injury Obs,[11]; quinclorac 200 g ai/ha,0%
same,Visual Injury Obs,[11]; quinclorac 200 g ai/ha,0%
same,Mean % Visual Injury,"[12]; Table 14, 7DAAA, halauxifen-methyl 5, quinclorac 101 g ae/ha",0.8%
same,Mean % Visual Injury,"[12]; Table 14, 15DAAA, halauxifen-methyl 5, quinclorac 101 g ae/ha",1.0%
same,Mean % Visual Injury,"[12]; Table 14, 27DAAA, halauxifen-methyl 5, quinclorac 101 g ae/ha",3.0%
same,Mean % Visual Injury,"[12]; Table 14, 57DAAA, halauxifen-methyl 5, quinclorac 101 g ae/ha",1.5%
same,Mean % Visual Injury,"[12]; Table 15, 7DAAA, halauxifen-methyl 5, clopyralid-olamine 150, quinclorac 101 g ae/ha",0.8%
same,Mean % Visual Injury,"[12]; Table 15, 15DAAA, halauxifen-methyl 5, clopyralid-olamine 150, quinclorac 101 g ae/ha",1.0%
same,Mean % Visual Injury,"[12]; Table 15, 27DAAA, halauxifen-methyl 5, clopyralid-olamine 150, quinclorac 101 g ae/ha",3.0%
same,Mean % Visual Injury,"[12]; Table 15, 57DAAA, halauxifen-methyl 5, clopyralid-olamine 150, quinclorac 101 g ae/ha",1.5%
same,Mean % Visual Injury,"[12]; Table 21, 8DAAA, halauxifen-methyl 5, quinclorac 101 g ae/ha",3.5%
same,Mean % Visual Injury,"[12]; Table 21, 14DAAA, halauxifen-methyl 5, quinclorac 101 g ae/ha",1.0%
same,Mean % Visual Injury,"[12]; Table 21, 40DAAA, halauxifen-methyl 5, quinclorac 101 g ae/ha",0.5%
same,Mean % Visual Injury,"[12]; Table 21, 81DAAA, halauxifen-methyl 5, quinclorac 101 g ae/ha",0.0%
same,Mean % Visual Injury,"[12]; Table 22, 8DAAA, halauxifen-methyl 5, clopyralid-olamine 150, quinclorac 101 g ae/ha",3.5%
same,Mean % Visual Injury,"[12]; Table 22, 14DAAA, halauxifen-methyl 5, clopyralid-olamine 150, quinclorac 101 g ae/ha",1.0%
same,Mean % Visual Injury,"[12]; Table 22, 40DAAA, halauxifen-methyl 5, clopyralid-olamine 150, quinclorac 101 g ae/ha",0.5%
same,Mean % Visual Injury,"[12]; Table 22, 81DAAA, halauxifen-methyl 5, clopyralid-olamine 150, quinclorac 101 g ae/ha",0.0%
same,Mean % Visual Injury,"[12]; Table 27, 7DAAA, halauxifen-methyl 5, quinclorac 101 g ae/ha",2.3%
same,Mean % Visual Injury,"[12]; Table 27, 17DAAA, halauxifen-methyl 5, quinclorac 101 g ae/ha",1.8%
same,Mean % Visual Injury,"[12]; Table 27, 32DAAA, halauxifen-methyl 5, quinclorac 101 g ae/ha",5.3%
same,Mean % Visual Injury,"[12]; Table 27, 49DAAA, halauxifen-methyl 5, quinclorac 101 g ae/ha",0.5%
same,Mean % Visual Injury,"[12]; Table 28, 7DAAA, halauxifen-methyl 5, clopyralid-olamine 150, quinclorac 101 g ae/ha",2.3%
same,Mean % Visual Injury,"[12]; Table 28, 17DAAA, halauxifen-methyl 5, clopyralid-olamine 150, quinclorac 101 g ae/ha",1.8%
same,Mean % Visual Injury,"[12]; Table 28, 32DAAA, halauxifen-methyl 5, clopyralid-olamine 150, quinclorac 101 g ae/ha",5.3%
same,Mean % Visual Injury,"[12]; Table 28, 49DAAA, halauxifen-methyl 5, clopyralid-olamine 150, quinclorac 101 g ae/ha",0.5%
same,% Visual Injury Obs,"[13]; 50 g ai/ha alone, 20-22 d",0%
same,% Visual Injury Obs,"[13]; 100 g ai/ha alone, 20-22 d",0%
same,% Visual Injury Obs,"[13]; 200 g ai/ha alone, 20-22 d",0%
same,% Visual Injury Obs,[13]; quinclorac 50 g ai/ha,0%
same,Visual Injury Obs,[13]; quinclorac 50 g ai/ha,0%
same,% Visual Injury Obs,[13]; quinclorac 100 g ai/ha,0%
same,Visual Injury Obs,[13]; quinclorac 100 g ai/ha,0%
same,% Visual Injury Obs,[13]; quinclorac 200 g ai/ha,0%
same,Visual Injury Obs,[13]; quinclorac 200 g ai/ha,0%
same,% Visual Injury Obs,"[14]; 50 g ai/ha alone, 20-22 d",0%
same,% Visual Injury Obs,"[14]; 100 g ai/ha alone, 20-22 d",0%
same,% Visual Injury Obs,"[14]; 200 g ai/ha alone, 20-22 d",0%
same,% Visual Injury Obs,[14]; quinclorac 50 g ai/ha,0%
same,Visual Injury Obs,[14]; quinclorac 50 g ai/ha,0%
same,% Visual Injury Obs,[14]; quinclorac 100 g ai/ha,0%
same,Visual Injury Obs,[14]; quinclorac 100 g ai/ha,0%
same,% Visual Injury Obs,[14]; quinclorac 200 g ai/ha,0%
same,Visual Injury Obs,[14]; quinclorac 200 g ai/ha,0%
same,% Visual Injury Obs,"[15]; 50 g ai/ha alone, 20-22 d",0%
same,% Visual Injury Obs,"[15]; 100 g ai/ha alone, 20-22 d",0%
same,% Visual Injury Obs,"[15]; 200 g ai/ha alone, 20-22 d",0%
same,% Visual Injury Obs,[15]; quinclorac 50 g ai/ha,0%
same,Visual Injury Obs,[15]; quinclorac 50 g ai/ha,0%
same,% Visual Injury Obs,[15]; quinclorac 100 g ai/ha,0%
same,Visual Injury Obs,[15]; quinclorac 100 g ai/ha,0%
same,% Visual Injury Obs,[15]; quinclorac 200 g ai/ha,0%
same,Visual Injury Obs,[15]; quinclorac 200 g ai/ha,0%
NCCO.O=C(O)c1nc(Cl)ccc1Cl [Clopyralidolamine],% Visual Injury Obs,[3],0%
same,% Visual Injury Obs,[4],0%
same,% Visual Injury Obs,[5],0%
same,% Visual Injury Obs,[6],0%
same,% Visual Injury Obs,[7],0%
same,% Visual Injury Obs,[8],0%
